Molecules are shown by their SMILES. Bounds are passed on as bounds.

The target in the assay is T1, FimH proteins (Escherichia coli, UniProt Q1R2J4).
T1 construct: endogenous in cells; host or cells: UPEC strain UTI89 (whole bacteria)
Nature of the assay: hemagglutination inhibition (HAI) assay: UPEC UTI89 with guinea pig red blood cells. Conditions: read-out: HAI EC90 (minimum concentration for inhibiting hemagglutination). The class given is cell-based, uropathogenic Escherichia coli (UPEC) UTI89. The method, then: In the present example, the mannose derivatives A1 to A107 that were prepared in Examples 1 to 12 were analyzed in hemagglutination inhibition (HAI) assays to determine inhibitory effects of the compounds on the function/activity of FimH proteins.
1. Preparation of a guinea pig red blood cell solution: an adult guinea pig was anesthetized with ethyl ether, blood was sampled from the heart, placed in an EDTA blood collection tube, and centrifuged at 2,000 rpm for 5 min, serum was removed, the sample was transferred in a centrifuge tube (15 mL), sterilized PBS was added, the sample was centrifuged at 1,500 rpm for 10 min, a supernatant was removed, the sample was transferred in a centrifuge tube (50 mL), PBS was added, the sample was centrifuged at 1,500 rpm for 10 min and repeatedly washed twice, and red blood cells were slightly aspirated into a new centrifuge tube (50 mL) to obtain a 5% guinea pig red blood cell solution.
2. Preparation of a bacteria solution: a UPEC cell line UTI89 was inoculated on a medium plate and cultured in an incubator at 37° C. overnight. Single colonies were picked and inoculated in an LB medium in a sterilized conical flask, and cultured at 37° C. and 170 r/min overnight. When an OD value at 540 nm was about 0.8 on a microplate reader, the bacterial concentration was about 10^8-10^9 cfu/mL, the bacteria solution was centrifuged at 2,000 rpm for 10 min, a supernatant was removed, and 1 mL of bacteria solution was prepared into 0.1 mL of PBS bacteria solution. […] The bacteria and the medium were uniformly mixed by shaking, and reacted in an incubator at 25° C. for about 20-40 min. When the plate was read, the wells in which complete agglutination occurred were used as 4HAU for the hemagglutination titer of the bacteria. For example, if the endpoint titer of hemagglutination is 1:256, the dilution multiple of the 4HAU antigen is 1:64 (256 divided by 4). Bacteria solutions at corresponding concentrations were prepared according to the experimental results.
3. Activity assay: a compound to be tested or a standard product was placed in a 96-well microtest plate, 50 μL of drug at an initial concentration of 200 μM was placed in the first well, and from the second well, 25 μL of PBS was added to each well to dilute the drug in proportion. The drug and the medium in the first well were mixed, 25 μL of mixed drug solution was placed in the second well, the drug solution was diluted in sequence to the last well, and 25 μL of drug solution was removed. 25 μL of bacteria solution was placed in each well of the culture plate containing the diluted drug, and cultured at 37° C. for 40 min. 25 μL of 5% guinea pig red blood cell suspension was placed in each well, and slightly uniformly mixed with the drug, and the plate was placed at 4° C. for about 1 h. When results were determined, the plate was tilted 60°, and whether the red blood cells flowed like teardrops was observed.
Mannosyl proteins are expressed on the surface of red blood cells in a guinea pig, which can bind to FimH proteins of UTI89 to cause hemagglutination. It can be observed with the naked eyes that the red blood cells form film-like agglutination at the bottom of the well, and loose red dots can be seen in the center. The FimH protein inhibitor competitively binds to FimH proteins to inhibit hemagglutination. It can be observed with the naked eyes that all the red blood cells sink and concentrate at the bottom of the well to form dense dots. The minimum concentration for inhibiting hemagglutination is expressed as an EC90 value of a compound. The final concentration of the compound in the first well is 66700 nM, the concentration in the second well is half that in the first well, the concentration in the third well is half that in the second well, and so on. […] A low EC90 value indicates high activity of a compound.

For `OC[C@H]1O[C@H](C#Cc2cnn([C@@H]3CCOC3)c2)[C@](O)(C#Cc2ccccc2)[C@@H](O)[C@@H]1O` [Compound A50], the EC90 came out at 130 nM.

For the compound `CO[C@H]1CC[C@H](n2cc(C#C[C@H]3O[C@H](CO)[C@@H](O)[C@H](O)[C@@]3(O)C#Cc3ccccc3)cn2)CC1` [Compound A60], the EC90 is 2 nM.

Consider `OC[C@H]1O[C@H](C#Cc2cnn(C3CCC3)c2)[C@](O)(C#Cc2ccccc2)[C@@H](O)[C@@H]1O` [Compound A44], for which the EC90 worked out at 8 nM.

For the compound `CNC(=O)c1cccc(-c2ccc(O[C@H]3O[C@H](CO)[C@@H](O)[C@H](O)[C@@]3(O)C#CC3CC3)c(C)c2)c1` [Compound A2], the EC90 is 16 nM.

Consider `CCn1cc(C#C[C@H]2O[C@H](CO)[C@@H](O)[C@H](O)[C@@]2(O)C#Cc2ccccc2)cn1` [Compound A40], for which the EC90 amounted to 32 nM.

Take `OC[C@H]1O[C@H](C#Cc2cnn(-c3cccc(Cl)c3)c2)[C@](O)(C#CC2CC2)[C@@H](O)[C@@H]1O` [Compound A92]: the EC90 is 2 nM.

In the case of `Cc1cc(Br)ccc1O[C@H]1O[C@H](CO)[C@@H](O)[C@H](O)[C@@]1(O)C#Cc1ccccc1` [Compound A4], the EC90 worked out at 1040 nM.

For the compound `CC(C)n1cc(C#C[C@H]2O[C@H](CO)[C@@H](O)[C@H](O)[C@@]2(O)C#Cc2ccccc2)ccc1=O` [Compound A33], the EC90 turned out to be 8 nM.

As for `CC#C[C@H]1O[C@H](CO)[C@@H](O)[C@H](O)[C@@]1(O)C#Cc1ccccc1` [Compound A15], the EC90 worked out at 520 nM.

For the compound `OC[C@H]1O[C@H](C#Cc2cnn(-c3ncccc3Cl)c2)[C@](O)(C#Cc2ccccc2)[C@@H](O)[C@@H]1O` [Compound A64], the EC90 was 4 nM.

As to `COc1cnc(-n2cc(C#C[C@H]3O[C@H](CO)[C@@H](O)[C@H](O)[C@@]3(O)C#Cc3cnn(C)c3)cn2)nc1` [Compound A71], the EC90 is 8 nM.

For `CCC(C)O[C@H]1O[C@H](CO)[C@@H](O)[C@H](O)[C@@]1(O)C#Cc1cccc(Cl)c1` (stereo partly shown) [Compound A57], the EC90 was 260 nM.

Turning to `CC(C)Oc1ccc(-n2cc(C#C[C@H]3O[C@H](CO)[C@@H](O)[C@H](O)[C@@]3(O)C#CC3CC3)cn2)cc1` [Compound A107], the EC90 was below 0.1 nM.

Consider `OC[C@H]1O[C@H](C#Cc2cnn(-c3ccccc3Cl)c2)[C@](O)(C#Cc2ccccc2)[C@@H](O)[C@@H]1O` [Compound A48], for which the EC90 was 1 nM.

For the compound `OC[C@H]1O[C@H](C#Cc2cnn(-c3ccc(O[C@H]4CCOC4)cc3)c2)[C@](O)(C#Cc2ccccc2)[C@@H](O)[C@@H]1O` [Compound A104], the EC90 was below 0.1 nM.

As to `CC(C)c1cccc(C#C[C@H]2O[C@H](CO)[C@@H](O)[C@H](O)[C@@]2(O)C#Cc2ccccc2)c1` [Compound A26], the EC90 amounted to 130 nM.

For `OC[C@H]1O[C@H](C#Cc2cccc(C(F)(F)F)c2)[C@](O)(C#Cc2ccccc2)[C@@H](O)[C@@H]1O` [Compound A28], the EC90 came out at 260 nM.

Consider `OC[C@H]1O[C@H](C#Cc2cnn(C3CCCCC3)c2)[C@](O)(C#Cc2ccccc2)[C@@H](O)[C@@H]1O` [Compound A46], for which the EC90 stood at 0.5 nM.

As to `Cc1ccccc1O[C@H]1O[C@H](CO)[C@@H](O)[C@H](O)[C@@]1(O)C#Cc1ccccc1` [Compound A5], the EC90 turned out to be 520 nM.

Turning to `CC(C)C(C)O[C@H]1O[C@H](CO)[C@@H](O)[C@H](O)[C@@]1(O)C#Cc1ccccc1` (stereo partly shown) [Compound A8], the EC90 was determined as 260 nM.

`OC[C@H]1O[C@H](C#Cc2ccc3ccccc3c2)[C@](O)(C#Cc2ccccc2)[C@@H](O)[C@@H]1O` [Compound A30]: the EC90 was 1040 nM.

In the case of `CCC#C[C@@]1(O)[C@@H](C#Cc2cnn(-c3ccccc3)c2)O[C@H](CO)[C@@H](O)[C@@H]1O` [Compound A87], the EC90 stood at 32 nM.

With `Cc1nn(C)cc1C#C[C@H]1O[C@H](CO)[C@@H](O)[C@H](O)[C@@]1(O)C#Cc1ccccc1` [Compound A38], the EC90 came out at 260 nM.

On to `CC(n1cc(C#C[C@H]2O[C@H](CO)[C@@H](O)[C@H](O)[C@@]2(O)C#Cc2ccccc2)cn1)C(F)(F)F` (stereo partly shown) [Compound A63], for which the EC90 was 16 nM.

For the compound `Cn1cc(C#C[C@@]2(O)[C@@H](C#Cc3cnn(-c4ccc(Cl)cc4)c3)O[C@H](CO)[C@@H](O)[C@@H]2O)cn1` [Compound A74], the EC90 worked out at 0.13 nM.

Regarding `Cn1cc(C#C[C@@]2(O)[C@@H](C#Cc3cnn(-c4ccccc4)c3)O[C@H](CO)[C@@H](O)[C@@H]2O)cn1` [Compound A84], the EC90 stood at 0.25 nM.

Regarding `CC(C)c1cccc(C#C[C@@]2(O)[C@@H](C#Cc3ccccc3)O[C@H](CO)[C@@H](O)[C@@H]2O)c1` [Compound A19], the EC90 is 520 nM.

Consider `CCn1cc(C#C[C@@]2(O)[C@@H](C#Cc3cnn(-c4ccc(Cl)cc4)c3)O[C@H](CO)[C@@H](O)[C@@H]2O)cn1` [Compound A78], for which the EC90 was below 0.1 nM.

`C#C[C@H]1O[C@H](CO)[C@@H](O)[C@H](O)[C@@]1(O)C#Cc1ccccc1` [Compound A14]: the EC90 was 4160 nM.

Regarding `OC[C@H]1O[C@H](C#CC2CC2)[C@](O)(C#Cc2ccccc2)[C@@H](O)[C@@H]1O` [Compound A16], the EC90 was 130 nM.

As for `OC[C@H]1O[C@H](C#Cc2cnn(-c3ccc(C(F)(F)F)cc3)c2)[C@](O)(C#CC2CC2)[C@@H](O)[C@@H]1O` [Compound A95], the EC90 turned out to be 4 nM.

For `OC[C@H]1O[C@H](C#Cc2cnn(Cc3ccccc3)c2)[C@](O)(C#Cc2ccccc2)[C@@H](O)[C@@H]1O` [Compound A43], the EC90 is 32 nM.

`N#Cc1ccc(-n2cc(C#C[C@H]3O[C@H](CO)[C@@H](O)[C@H](O)[C@@]3(O)C#CC3CC3)cn2)cc1` [Compound A96]: the EC90 came out at 4 nM.

Consider `OC[C@H]1O[C@H](C#Cc2cnn(C3CCC(F)(F)CC3)c2)[C@](O)(C#Cc2ccccc2)[C@@H](O)[C@@H]1O` [Compound A53], for which the EC90 amounted to 8 nM.

As to `Cc1cccc(C#C[C@H]2O[C@H](CO)[C@@H](O)[C@H](O)[C@@]2(O)C#Cc2ccccc2)c1` [Compound A25], the EC90 was determined as 260 nM.

Take `OC[C@H]1O[C@H](C#Cc2cnn(-c3ccc(Cl)cc3)c2)[C@](O)(C#Cc2cccnc2)[C@@H](O)[C@@H]1O` [Compound A73]: the EC90 is 8 nM.

On to `CC(C)Oc1cccc(C#C[C@@]2(O)[C@@H](C#Cc3ccccc3)O[C@H](CO)[C@@H](O)[C@@H]2O)c1` [Compound A21], for which the EC90 is 260 nM.

In the case of `CC(C)n1cc(C#C[C@H]2O[C@H](CO)[C@@H](O)[C@H](O)[C@@]2(O)C#Cc2ccccc2)cn1` [Compound A39], the EC90 stood at 8 nM.

As to `Cn1cc(C#C[C@H]2O[C@H](CO)[C@@H](O)[C@H](O)[C@@]2(O)C#Cc2ccccc2)cn1` [Compound A34], the EC90 came to 64 nM.

Consider `CC(C)O[C@H]1O[C@H](CO)[C@@H](O)[C@H](O)[C@@]1(O)C#Cc1ccccc1` [Compound A6], for which the EC90 was 1040 nM.

As for `OC[C@H]1O[C@H](C#Cc2cnn(-c3ccc(OC(F)(F)F)cc3)c2)[C@](O)(C#CC2CC2)[C@@H](O)[C@@H]1O` [Compound A10], the EC90 was determined as 0.13 nM.

For `OC[C@H]1O[C@H](C#Cc2cnn(-c3ccc(Cl)cc3)c2)[C@](O)(C#Cc2ccccc2)[C@@H](O)[C@@H]1O` [Compound A67], the EC90 came out at 0.13 nM.

In the case of `OC[C@H]1O[C@H](C#Cc2cnn([C@@H]3C[C@H]4C[C@H]4C3)c2)[C@](O)(C#Cc2ccccc2)[C@@H](O)[C@@H]1O` [Compound A61], the EC90 was determined as 8 nM.

Source of the values: patent publication US11964996B2, “2-alkynylmannose derivative and application thereof” (priority 2020, dated 2024).
